Measured values: US20080166432A1, “Biotherapeutics for Mitigation of Health Disorders from Terminalia Arjuna” (Avestha Gengraine Technologies Pvt. Ltd., priority 2003, published 2008)

Legend:
[1] = DPPH scavenging effect (antioxidant assay); assay type: physicochemical; details: T. arjuna extracts from different plant parts
Text: This method is based on the reduction of DPPH, a stable free radical. Due to the odd electron of DPPH, it gives a strong absorption maximum at 517 nm by visible spectroscopy (purple color). As the odd electron of the radical becomes paired off in the presence of hydrogen donor, that is, a free-radical scavenging antioxidant, the absorption strength is decreased, and the resulting de-coloration is stoichiometric with respect to the number of electrons captured. This reaction has widely been used to evaluate the anti-oxidative activity of food and plant extracts.
Reactions were performed in 1.25 ml of methanol containing 0.5 mM freshly made DPPH and various amounts of the extract. Reaction mixtures were incubated at 37° C. for 30 min, and the absorbance at 517 nm was measured. This assay was done in triplicate.
Oxidant (DPPH) inhibitory activity (%)={(A517Control−A517 Sample)/A517Control}×100
IC50 is defined as the amount of extract required for 50% inhibition in the levels of free radical. Table 25 gives the IC50 values of Terminalia arjuna bark and fruit extracts.

[2] = tested on: endothelial cells; details: ascorbate pretreatment; measured as citrulline formation and cGMP accumulation; cited from earlier work
[3] = tested on: Bacillus subtilis ATCC-6633; assay: Antibacterial assay, agar streak method; assay type: cell-based; design: key: +++: abundant growth; ++: growth; +: less growth; −: no growth; details: B. subtilis; LB + Ciprofloxacin 2 μg/ml
Text: (§1) Testing of anti-microbial potential was done against following bacterial strains (Gram negative: Escherichia coli ATCC-10536, Pseudomonas aeruginosa ATCC-9027, Klebsiella pneumoniea ATCC-10031, Bordetella bronchiseptica ATCC-4617; Gram Positive: Staphylococcus aureus ATCC-29737, Streptococcus fecalis ATCC-8043, Micrococcus luteus ATCC-9341, Bacillus subtilis ATCC-6633, Bacillus cereus ATCC-11778, Bacillus pumilus ATCC-14884, Staphylococcus epidermidis ATCC-6358) were selected from the microorganisms given in United states Pharmacopoeia (2000), British Pharmacopoeia (1993) and Indian Pharmacopoeia (1996) for anti-microbial assays.
(§2) A stock of 100 mg/ml of Ethyl acetate, Acetone, Ethanol, Methanol and Water successive extract from Terminalia arjuna bark and direct ethanol and successive water extracts from Terminalia arjuna fruit was dissolved in DMSO. To determine the antibacterial potential extracts at a concentration of 5 mg/ml and 1 mg/ml were added to 30 ml of luke warm Luria Bertaini agar medium. After the medium was solidified, overnight grown 11 bacterial strains mentioned were taken in loop and streaked on the medium. The plates were incubated at 37° C. for 24 hrs after which the bacterial growth was monitored. Suitable controls were maintained with the extracts and the microorganisms. Luria Bertaini agar medium with and without 1.5% DMSO were used as negative control set, Ciprofloxacin (2 μg/ml) served as positive control.

[4] = tested on: Pseudomonas aeruginosa ATCC-9027; assay: Antibacterial assay, agar streak method; assay type: cell-based; design: key: +++: abundant growth; ++: growth; +: less growth; −: no growth; details: P. aeruginosa
Text: as §1, §2

[5] = tested on: Bacillus pumilus ATCC-14884; assay: Antibacterial assay, agar streak method; assay type: cell-based; design: key: +++: abundant growth; ++: growth; +: less growth; −: no growth; details: B. pumilus
Text: as §1, §2

[6] = tested on: Streptococcus fecalis ATCC-8043; assay: Antibacterial assay, agar streak method; assay type: cell-based; design: key: +++: abundant growth; ++: growth; +: less growth; −: no growth; details: S. fecalis
Text: as §1, §2

[7] = tested on: Bordetella bronchiseptica ATCC-4617; assay: Antibacterial assay, agar streak method; assay type: cell-based; design: key: +++: abundant growth; ++: growth; +: less growth; −: no growth; details: B. bronchiseptica
Text: as §1, §2

[8] = tested on: Escherichia coli ATCC-10536; assay: Antibacterial assay, agar streak method; assay type: cell-based; design: key: +++: abundant growth; ++: growth; +: less growth; −: no growth; details: E. coli
Text: as §1, §2

[9] = tested on: Klebsiella pneumoniea ATCC-10031; assay: Antibacterial assay, agar streak method; assay type: cell-based; design: key: +++: abundant growth; ++: growth; +: less growth; −: no growth; details: K. pneumoniea
Text: as §1, §2

[10] = tested on: Bacillus cereus ATCC-11778; assay: Antibacterial assay, agar streak method; assay type: cell-based; design: key: +++: abundant growth; ++: growth; +: less growth; −: no growth; details: B. cereus
Text: as §1, §2

[11] = tested on: Staphylococcus epidermidis ATCC-6358; assay: Antibacterial assay, agar streak method; assay type: cell-based; design: key: +++: abundant growth; ++: growth; +: less growth; −: no growth; details: S. epidermidis
Text: as §1, §2

[12] = tested on: Staphylococcus aureus ATCC-29737; assay: Antibacterial assay, agar streak method; assay type: cell-based; design: key: +++: abundant growth; ++: growth; +: less growth; −: no growth; details: S. aureus
Text: as §1, §2

[13] = tested on: Micrococcus luteus ATCC-9341; assay: Antibacterial assay, agar streak method; assay type: cell-based; design: key: +++: abundant growth; ++: growth; +: less growth; −: no growth; details: M. luteus
Text: as §1, §2

[14] = LB + Ciprofloxacin 2 μg/ml (Table 27)

SMILES: O=C1O[C@H]([C@@H](O)CO)C(O)=C1O [Ascorbate, ascorbic acid]
- IC50 values of antioxidation potential [1]: 26 µg/mL
- increase of the cellular production of NO [2]: 3 fold

SMILES: O=C(O)c1cn(C2CC2)c2cc(N3CCNCC3)c(F)cc2c1=O [Ciprofloxacin]
- bacterial growth [3]: −
- bacterial growth ([4]; LB + Ciprofloxacin 2 μg/ml): −
- bacterial growth [4, 14]: −
- bacterial growth ([5]; LB + Ciprofloxacin 2 μg/ml): −
- bacterial growth [5, 14]: −
- bacterial growth ([6]; LB + Ciprofloxacin 2 μg/ml): −
- bacterial growth [6, 14]: −
- bacterial growth ([7]; LB + Ciprofloxacin 2 μg/ml): −
- bacterial growth [7, 14]: −
- bacterial growth ([8]; LB + Ciprofloxacin 2 μg/ml): −
- bacterial growth [8, 14]: −
- bacterial growth ([9]; LB + Ciprofloxacin 2 μg/ml): −
- bacterial growth [9, 14]: −
- bacterial growth ([10]; LB + Ciprofloxacin 2 μg/ml): −
- bacterial growth [10, 14]: −
- bacterial growth ([11]; LB + Ciprofloxacin 2 μg/ml): −
- bacterial growth [11, 14]: −
- bacterial growth ([12]; LB + Ciprofloxacin 2 μg/ml): −
- bacterial growth [12, 14]: −
- bacterial growth ([13]; LB + Ciprofloxacin 2 μg/ml): −
- bacterial growth [13, 14]: −
